molecular target: T1, hRR (hRRM1 and hRRM2) (Homo sapiens, UniProt P23921); test: biochemical; conditions: not given
T1 sequence (P23921 1-792): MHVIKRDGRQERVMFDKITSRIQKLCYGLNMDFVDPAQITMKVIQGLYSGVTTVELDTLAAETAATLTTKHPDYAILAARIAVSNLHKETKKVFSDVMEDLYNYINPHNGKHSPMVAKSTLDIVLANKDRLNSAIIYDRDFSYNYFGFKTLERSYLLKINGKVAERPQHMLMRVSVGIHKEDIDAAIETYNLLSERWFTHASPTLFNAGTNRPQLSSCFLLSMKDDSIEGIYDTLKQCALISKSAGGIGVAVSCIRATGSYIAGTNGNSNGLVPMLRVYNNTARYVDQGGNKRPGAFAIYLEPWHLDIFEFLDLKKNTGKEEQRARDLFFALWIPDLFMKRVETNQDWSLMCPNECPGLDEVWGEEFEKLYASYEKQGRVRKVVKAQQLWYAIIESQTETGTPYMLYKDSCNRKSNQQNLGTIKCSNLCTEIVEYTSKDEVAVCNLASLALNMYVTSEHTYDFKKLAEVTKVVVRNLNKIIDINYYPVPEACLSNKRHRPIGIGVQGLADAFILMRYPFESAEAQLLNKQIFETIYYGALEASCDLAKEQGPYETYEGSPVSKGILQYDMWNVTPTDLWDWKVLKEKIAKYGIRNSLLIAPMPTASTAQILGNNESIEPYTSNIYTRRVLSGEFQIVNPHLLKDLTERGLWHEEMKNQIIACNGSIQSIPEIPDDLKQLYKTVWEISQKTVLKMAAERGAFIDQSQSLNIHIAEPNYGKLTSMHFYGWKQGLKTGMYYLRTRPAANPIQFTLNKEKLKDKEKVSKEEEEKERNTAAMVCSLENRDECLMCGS
T1 sequence (P31350 1-389 partner): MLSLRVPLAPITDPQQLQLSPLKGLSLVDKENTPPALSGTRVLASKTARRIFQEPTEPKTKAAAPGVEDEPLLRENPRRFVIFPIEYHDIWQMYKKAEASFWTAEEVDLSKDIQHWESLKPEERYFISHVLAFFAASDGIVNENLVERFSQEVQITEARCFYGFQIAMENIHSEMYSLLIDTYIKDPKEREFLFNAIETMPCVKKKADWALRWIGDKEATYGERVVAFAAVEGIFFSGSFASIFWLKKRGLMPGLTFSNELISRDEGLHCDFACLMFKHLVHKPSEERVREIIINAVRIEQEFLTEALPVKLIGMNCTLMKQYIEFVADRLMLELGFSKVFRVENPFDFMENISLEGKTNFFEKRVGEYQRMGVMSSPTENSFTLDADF

| IC50 | Structure (SMILES) |
| --- | --- |
| 39.8 ± 0.9 µM | O=C(CCCCCCCCC(=O)N/N=C/c1c(O)ccc2ccccc12)N/N=C/c1c(O)ccc2ccccc12 [compound 4, N′1,N′10-bis((E)-(2-hydroxynaphthalenyl)methylene) decanedihydrazide] |
| 269 µM | O=c1nc(-n2cc(-c3ccc4cc(O)ccc4c3)nn2)cc[nH]1 |
| 607 µM | OCc1ccccc1-n1cc(-c2ccc3cc(O)ccc3c2)nn1 |
| 94.1 µM | COc1ccc(C(=O)N/N=C/c2c(O)ccc3ccccc23)cc1 |
| 687 µM | COc1cc(C(=O)N/N=C/c2c(O)ccc3ccccc23)ccc1O |
| 40.2 µM | O=c1oc(-c2ccccc2-c2ccccc2-c2nc3ccccc3c(=O)o2)nc2ccccc12 |
| 13.2 µM | O=C1C=Cc2cc(C3=NC4C=CC=CC4S(=O)(=O)N3)c(=O)oc2C1 (centres unmarked) |
| 3.8 µM | O=C(O)c1ccccc1-c1ccccc1C(=O)c1ccc2ccccc2n1 |
| 15.3 µM | O=C(Nc1ccccc1C(=O)O)c1ccc2ccccc2n1 |
| 86.8 µM | Cc1ccc(C(=O)N/N=C/c2c(O)ccc3ccccc23)cc1 |
| 31.3 µM | Cc1c(-n2cc(-c3ccc4cc(O)ccc4c3)nn2)c(=O)n(-c2ccccc2)n1C |
| 8.1 µM | O=C(c1ccccc1O)n1cc(-c2c(O)ccc3ccccc23)nn1 |

molecular target: T1, hRR (hRRM1 and hRRM2); test: not given; conditions: read-out: Cell-Free IC50; NSAAH library against hRR

| IC50 | Structure (SMILES) |
| --- | --- |
| 298 µM | CC1(C)C2CC(=O)C1C(CS(=O)(=O)N/N=C/c1c(O)ccc3ccccc13)C2 (centres unmarked) |
| 122 µM | O=S(=O)(N/N=C/c1c(O)ccc2ccccc12)c1ccccc1 |
| 5.3 µM | O=C(N/N=C/c1c(O)ccc2ccccc12)c1cccnc1 |
| 6.8 µM | Cc1ccc(S(=O)(=O)N/N=C/c2c(O)ccc3ccccc23)cc1 |

molecular target: T2, RR (Homo sapiens, UniProt P23921); test: In Vivo RR IC50 (Table 2); assay type: cell-based; conditions: In Vivo RR IC50^b (μM), 1 μM, sub-column 1 μM
T2 construct: endogenous in cells; host or cells: established human cancer cell lines (MDA-MB-231, HCT-116; also A549, Panc1)
T2 sequence (P23921 1-792): T1 sequence (P23921 1-792)
T2 sequence (P31350 1-389 partner): T1 sequence (P31350 1-389 partner)

| IC50 | Structure (SMILES) |
| --- | --- |
| 0.674 µM | O=C(CCCCCCCCC(=O)N/N=C/c1c(O)ccc2ccccc12)N/N=C/c1c(O)ccc2ccccc12 [compound 4, N′1,N′10-bis((E)-(2-hydroxynaphthalenyl)methylene) decanedihydrazide] |

same assay, conditions: In Vivo RR IC50^b (μM), 10 μM, sub-column 10 μM

| IC50 | Structure (SMILES) |
| --- | --- |
| 0.792 µM | O=C(CCCCCCCCC(=O)N/N=C/c1c(O)ccc2ccccc12)N/N=C/c1c(O)ccc2ccccc12 [compound 4, N′1,N′10-bis((E)-(2-hydroxynaphthalenyl)methylene) decanedihydrazide] |

tested on: select cancer cell lines; test: Cellular IC50 of NSAAH library (Table 3); assay type: cell-based; conditions: not given
Method: (§1) Cell were maintained in standard tissue culture media (RPMI1640, +10% fetal bovine serum, plus antibiotic) and grown in a standard humidified 5% CO2 incubator at 37° C. Cells were regularly tested using the MycoAlert detection kit (Lonza Biologics) and shown to be mycoplasma-free. Initial compound screening was performed using both MDA-MB-23 land HCT-116 cell lines. For moderate throughput screening (up to 120 drugs per experiment), cells were seeded into 96 well plates and allowed to attach overnight. The following day media was removed and replaced with fresh compound containing media. Each compound was tested against both cell lines at 3 concentrations; 1 μM, 10 μM and 50 μM, in duplicate. Cells were incubated with compound containing media for three days in a standard 5% CO2 tissue culture incubator. Cell growth was assessed after 3 days using the DNA dye binding assay, as originally described by LaBarca and Paigen. Relative growth was independently calculated for each cell line, based on DNA content from corresponding cells grown in control media plus diluent (DMSO). Additional growth inhibition experiments utilized either the DNA binding assay or the Promega CellTiter 96® (MTT reduction) assay, with similar results. For detailed growth inhibition assays, cells (1500-2500 depending on the growth characteristics of the cell line) were seeded in standard 96 well tissue culture plates and allowed to attach overnight. The following day media was removed and replaced with drug containing media. Each dose group consisted of 5 replicate wells, and results are reported a Relative Growth, calculated as DNA or MTT reduction per well, divided by the signal from untreated cells, both harvested 3 days after drug administration.

| IC50 | Structure (SMILES) | Cellular IC50 |
| --- | --- | --- |
|  | Nc1ccccc1C(=O)N/N=C/c1c(O)ccc2ccccc12 | No cytotoxicity |
|  | O=c1nc(-n2cc(-c3ccc4cc(O)ccc4c3)nn2)cc[nH]1 | No cytotoxicity |
|  | OCc1ccccc1-n1cc(-c2ccc3cc(O)ccc3c2)nn1 | No cytotoxicity |
|  | O=S(=O)(Cc1ccccc1)N/N=C/c1c(O)ccc2ccccc12 | No cytotoxicity |
|  | CC1(C)C2CC(=O)C1C(CS(=O)(=O)N/N=C/c1c(O)ccc3ccccc13)C2 (centres unmarked) | No cytotoxicity |
|  | Oc1ccc(CCn2cc(-c3ccc4cc(O)ccc4c3)nn2)cc1 | No cytotoxicity |
| > 10 µM | O=[N+]([O-])c1ccc(N/N=C/c2c(O)ccc3ccccc23)cc1 |  |
| > 10 µM | COc1ccc(C(=O)N/N=C/c2c(O)ccc3ccccc23)cc1 |  |
| > 10 µM | O=S(=O)(N/N=C/c1c(O)ccc2ccccc12)c1ccccc1 |  |
|  | O=C(N/N=C/c1c(O)ccc2ccccc12)c1cccnc1 | No cytotoxicity |
| > 10 µM | O=C(N/N=C/c1cc2ccccc2cc1O)c1ccccc1O |  |
|  | COc1cc(C(=O)N/N=C/c2c(O)ccc3ccccc23)ccc1O | No cytotoxicity |
|  | O=c1oc(-c2ccccc2-c2ccccc2-c2nc3ccccc3c(=O)o2)nc2ccccc12 | No cytotoxicity |
|  | O=C1C=Cc2cc(C3=NC4C=CC=CC4S(=O)(=O)N3)c(=O)oc2C1 (centres unmarked) | No cytotoxicity |
|  | O=C(O)c1ccccc1-c1ccccc1C(=O)c1ccc2ccccc2n1 | No cytotoxicity |
|  | O=C(Nc1ccccc1C(=O)O)c1ccc2ccccc2n1 | No cytotoxicity |
|  | Cc1ccc(C(=O)N/N=C/c2c(O)ccc3ccccc23)cc1 | No cytotoxicity |
|  | Cc1ccc(S(=O)(=O)N/N=C/c2c(O)ccc3ccccc23)cc1 | No cytotoxicity |
|  | Cc1c(-n2cc(-c3ccc4cc(O)ccc4c3)nn2)c(=O)n(-c2ccccc2)n1C | No cytotoxicity |
|  | O=C(c1ccccc1O)n1cc(-c2c(O)ccc3ccccc23)nn1 | No cytotoxicity |

| Structure (SMILES) | IC50 | Cellular IC50 |
| --- | --- | --- |
| O=C(N/N=C/c1ccc2cc(O)ccc2c1)c1ccccc1O | > 10 µM |  |

tested on: MDA-MB-231, HCT116, A549 and Panc1 cell lines; test: Detailed growth inhibition studies, median effect dose; assay type: cell-based; conditions: Homo sapiens, 72 h; set of four cell lines, 3 days; read-out: median effect dose (Dm), growth inhibitory activity
Method: Cell were maintained in standard tissue culture media (RPMI1640, +10% fetal bovine serum, plus antibiotic) and grown in a standard humidified 5% CO2 incubator at 37° C. […] For moderate throughput screening (up to 120 drugs per experiment), cells were seeded into 96 well plates and allowed to attach overnight. The following day media was removed and replaced with fresh compound containing media. Each compound was tested against both cell lines at 3 concentrations; 1 μM, 10 μM and 50 μM, in duplicate. Cells were incubated with compound containing media for three days in a standard 5% CO2 tissue culture incubator. Cell growth was assessed after 3 days using the DNA dye binding assay, as originally described by LaBarca and Paigen. Relative growth was independently calculated for each cell line, based on DNA content from corresponding cells grown in control media plus diluent (DMSO). […] The following day media was removed and replaced with drug containing media.
Over 190 compounds were screened for their ability to inhibit growth and/or induce cell death in established cancer cell lines.

| IC50 | Structure (SMILES) |
| --- | --- |
| 1 to 10 µM | O=C(CCCCCCCCC(=O)N/N=C/c1c(O)ccc2ccccc12)N/N=C/c1c(O)ccc2ccccc12 [compound 4, N′1,N′10-bis((E)-(2-hydroxynaphthalenyl)methylene) decanedihydrazide] |

tested on: MDA-MB-231 and HCT-116 cell lines; test: Growth inhibition screening assay (In Cell IC50); assay type: cell-based, human; conditions: Homo sapiens, 72 h; 3 days with compound
Method: as §1

| IC50 | Structure (SMILES) |
| --- | --- |
| 0.06 to 2 µM | O=C(CCCCCCCCC(=O)N/N=C/c1c(O)ccc2ccccc12)N/N=C/c1c(O)ccc2ccccc12 [compound 4, N′1,N′10-bis((E)-(2-hydroxynaphthalenyl)methylene) decanedihydrazide] |

From patent US20180360782A1, “METHOD OF MODULATING RIBONUCLEOTIDE REDUCTASE” (CASE WESTERN RESERVE UNIVERSITY, priority 2015, published 2018)
